Data set [1] is described as follows: Risk for torsades des pointes of drugs combined with oxybutynin.
Data set [2] relates to Male guinea pigs. Briefly: Cardiac side effects: QTc interval of the EKG in anesthetized guinea pigs. The following applies: intravenous infusion over 30 min. The data set is classed as in vivo, guinea pig. The protocol: Male guinea pigs (450-600 g) are anesthetized with freshly prepared dialurethane sodium. The jugular vein is catheterized for iv administration of test drugs and the trachea is exposed and cannulated. Subdermal electrodes are positioned for Lead II electrocardiogram recording, monitored on a Grass Polygraph recorder, set at a paper speed of 50 nmmsec. The animals are allowed to stabilize for 30 minute after completion of surgery, and three baseline EKG recordings are then made at 10-minute intervals. The animals are then given a dose of the test compound or vehicle as an intravenous inflision over 30 min. EKG recordings are used to determine QT intervals and heart rates. To compensate for variations in heart rates, QTc intervals are calculated from QT- and RR-intervals as known to those skilled in the art. Prolongation of QTc is indicative of a prolonged action potential, caused by an inhibition of the delayed rectifier potassium channel. Prolongation of QTc is the known cause of Torsades de Pointes ventricular fibrillation by drugs such as terfenadine and astemizole (now withdrawn from the market).

For data set [3] the following is noted: isomers of racemic oxybutynin; cited from earlier work.
The conditions of data set [4]: drugs withdrawn from the market because of this side effect; cited from earlier work.
Data set [5] relates to patients with conditions characterized by involuntary bladder contractions. The following applies: clinical studies; cited from earlier work.
Data set [6] concerns benzothiazepine receptors. Briefly: Affinity for benzothiazepine receptors. The data set is classed as binding. The following applies: compared with the des-ethyl metabolite.
In data set [7] the test system is human recombinant muscarinic receptor subtypes. Briefly: Ligand binding studies: muscarinic receptors. Conditions: compared with the des-ethyl metabolite. The protocol: 1. Ligand Binding Studies: Muscarinic Receptors.
The experiments are carried out on membranes prepared from SF9 cells infected with baculovirus to express human recombinant muscarinic receptor subtypes. After incubation with the test article and the proper radioligand and washing, bound radioactivity is determnined with a liquid scintillation counter, using a commercial scintillation cocktail. The specific radioligand binding to each receptor is defined as the difference between total binding and nonspecific binding determined in the presence of an excess of unlabelled ligand. IC50 values (concentrations required to inhibit 50% of specific binding) are determined by non linear regression analysis of the competition curves. These parameters are obtained by curve fitting using Sigmaplot software.

Data set [8] deals with Strips of intestinal smooth muscle tissue. The protocol:
2. Functional Characterization of Antimuscarinic/Antispasmodic Activity.
Strips of intestinal smooth muscle tissue are removed from the body of male Hartley guinea pigs weighing 400-600 g. The strips are suspended in an oxygenated buffer of the following composition, in mM: NaCl, 133; KCl, 4.7; CaCl2, 2.5; MgSO4, 0.6; NaH2PO4, 1.3; NaHCO3, 16.3; and glucose, 7.7, or a similar balanced physiological solution. They are maintained at constant temperature. Contractions are recorded with isometric transducers (Model FT-10) on an ink-writing polygraph.
In each experiment up to seven strips are removed from a single animal, suspended in individual tissue chambers and allowed to equilibrate with the bathing solution for one hour before proceeding with the experiment.
In order to assess the viability of each tissue and to serve as a frame of reference, contractions of each strip of tissue are recorded initially in response to exposure to a tissue medium in which the NaCl was replaced by KCl to yield a concentration of 137.7 mM KCl in the medium. […] Then, leaving one strip untreated and/or one strip exposed to the test solution to serve as control tissue(s), the remaining strips each are exposed for one hour to one concentration of an antagonist. Finally, the responses to increasing concentrations of carbachol followed by exposure to 137.7 mM KCl are recorded a second time. To determine whether antagonists decrease the peak response to agonists, the peak tension developed by each strip during the second set of determinations is expressed as a percent of the peak tension developed during the first concentration-effect determination. Then, for each antagonist the resultant data are analyzed using standard statistical methodology.

Regarding `CC(=O)N1CCN(c2ccc(OCC3COC(Cn4ccnc4)(c4ccc(Cl)cc4Cl)O3)cc2)CC1` (stereo not drawn) [ketoconazole], the “risk for torsades des pointes” value in data set [1] was “further increase the risk for torsades des pointes”.

`CCN(CC)CC#CCOC(=O)[C@](O)(c1ccccc1)C1CCCCC1` (single isomer, unassigned) [R(−)-isomer, R(−)-oxybutynin]: the “prolongation of the QTc-interval of the EKG” value in data set [2] is given as “cause a prolongation of the QTc-interval”. Besides, the anticholinergic activity result in data set [3] is on record as “practically all of the anticholinergic activity of OXY resides in the R(−)-isomer”. Regarding `CCN(CC)CC#CCOC(=O)[C@@](O)(c1ccccc1)C1CCCCC1` (single isomer, unassigned) [S(+)-isomer, S(+)-oxybutynin], the “prolongation of the QTc-interval of the EKG” value in data set [2] is on record as “cause a prolongation of the QTc-interval”. In data set [3], the spasmolytic activity entry is “direct spasmolytic activity”. With `COc1ccc(CCN2CCC(Nc3nc4ccccc4n3Cc3ccc(F)cc3)CC2)cc1` [astemizole], in data set [4], the “prolongation of QTc” value is “found to cause prolongation of QTc”. With `CCN(CC)CC#CCOC(=O)C(O)(c1ccccc1)C1CCCCC1` (racemic) [oxybutynin, 4-diethylamino-2-butynyl cyclohexylphenylglycolate], the “prolongation of the QTc-interval of the EKG” value in data set [2] is on record as “causes a prolongation of the QTc-interval”. Moreover, in data set [5], the bladder capacity entry is “increases bladder capacity”, the “frequency of involuntary contractions of the detrusor muscle” value is “diminishes the frequency of involuntary contractions of the detrusor muscle” and the “initial desire to void” value was “delays the initial desire to void”. `CC(CC(c1ccccc1)c1ccccc1)NC(C)(C)C` (stereo not drawn) [terodiline]: in data set [4], the “prolongation of QTc” value is “found to cause prolongation of QTc”. Consider “didesethyloxybutynin [didesethyl metabolite]”, for which the “prolongation of the QTc-interval of the EKG” value in data set [2] is recorded as “does not prolong the QTc interval”. Moreover, the “affinity for benzothiazepine receptors” value in data set [6] was “somewhat lower affinity”. Further, the “affinity for muscarinic receptors” value in data set [7] is reported as “somewhat lower affinity”. Regarding `CCNCC#CCOC(=O)[C@](O)(c1ccccc1)C1CCCCC1` (single isomer, unassigned) [R-isomer of the des-ethyl metabolite of oxybutynin], the “antimuscarinic / anticholinergic activity” value in data set [8] is recorded as “potent antimuscarinic agent”. As to `CCNCC#CCOC(=O)[C@@](O)(c1ccccc1)C1CCCCC1` (single isomer, unassigned) [S-isomer of the des-ethyl metabolite of oxybutynin], in data set [8], the “antimuscarinic / anticholinergic activity” value is recorded as “weak anticholinergic activity” and the spasmolytic activity result is listed as “spasmolytic agent”. On to `CCNCC#CCOC(=O)C(O)(c1ccccc1)C1CCCCC1` (racemic) [desethyl metabolite of oxybutynin, 4-ethylamino-2-butynyl cyclohexyl-phenylglycolate], for which, in data set [2], the “prolongation of the QTc-interval of the EKG” value is reported as “free from said cardiac side effect”.

The values are drawn from US6432446B1, “Non-arrhythmogenic metabolite of oxybutynin” (Bridge Pharma, Inc., priority 2000, dated 2002).
